Test results reported in ChEMBL document CHEMBL1201862, “PubChem BioAssay data set” (2004).
Activity calls are given as the source filed them. Cut-off read from the data, not from the text of the source, for most assays here: actives have a measured EC50 and inactives only a lower limit.

Assays:
[1] = cells; format: functional
[2] = target: T1, Calpain-2 catalytic subunit (Sus scrofa, UniProt P43367); test: pig calpain II inhibitor potency, dose response, biochemical, fluorogenic peptide substrate (AID 1420); format: functional
T1 sequence (P43367 whole entry): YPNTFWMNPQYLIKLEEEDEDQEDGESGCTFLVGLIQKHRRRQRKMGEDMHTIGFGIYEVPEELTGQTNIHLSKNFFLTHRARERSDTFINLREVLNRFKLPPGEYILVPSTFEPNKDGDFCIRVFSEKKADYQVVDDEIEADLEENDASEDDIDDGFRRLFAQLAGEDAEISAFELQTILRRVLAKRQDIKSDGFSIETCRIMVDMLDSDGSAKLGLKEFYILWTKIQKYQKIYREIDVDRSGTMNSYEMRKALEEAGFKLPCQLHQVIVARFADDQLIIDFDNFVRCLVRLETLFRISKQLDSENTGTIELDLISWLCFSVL

[3] = inhibitors of firefly luciferase expression or activity, dose response, H4 neuroglioma cells, luminescence (AID 1990); format: functional, cell-based
[4] = Luminescence Cell-Based Dose Response HTS to Identify Inhibitors of 5'UTR Stem-Loop Driven Prion Protein mRNA Translation in H4 Neuroglioblastoma Cells. [Related pubchem assays: 1827 (Project Summary), 1813 (Primary HTS)]; format: functional
[5] = inhibitors of SNCA 5'UTR-driven reporter translation, confirmation, H4 neuroglioma cells, luminescence (AID 1988); format: functional, cell-based
[6] = test system: BJ; test: cells; format: functional, cell-based; details: Homo sapiens
[7] = target: T2, Replicative DNA helicase DnaB (Mycobacterium tuberculosis, UniProt P9WMR3); test: DnaB intein splicing inhibitors, dose response, biochemical, cell-free fluorescence (AID 449749); format: functional
T2 sequence (P9WMR3 whole entry): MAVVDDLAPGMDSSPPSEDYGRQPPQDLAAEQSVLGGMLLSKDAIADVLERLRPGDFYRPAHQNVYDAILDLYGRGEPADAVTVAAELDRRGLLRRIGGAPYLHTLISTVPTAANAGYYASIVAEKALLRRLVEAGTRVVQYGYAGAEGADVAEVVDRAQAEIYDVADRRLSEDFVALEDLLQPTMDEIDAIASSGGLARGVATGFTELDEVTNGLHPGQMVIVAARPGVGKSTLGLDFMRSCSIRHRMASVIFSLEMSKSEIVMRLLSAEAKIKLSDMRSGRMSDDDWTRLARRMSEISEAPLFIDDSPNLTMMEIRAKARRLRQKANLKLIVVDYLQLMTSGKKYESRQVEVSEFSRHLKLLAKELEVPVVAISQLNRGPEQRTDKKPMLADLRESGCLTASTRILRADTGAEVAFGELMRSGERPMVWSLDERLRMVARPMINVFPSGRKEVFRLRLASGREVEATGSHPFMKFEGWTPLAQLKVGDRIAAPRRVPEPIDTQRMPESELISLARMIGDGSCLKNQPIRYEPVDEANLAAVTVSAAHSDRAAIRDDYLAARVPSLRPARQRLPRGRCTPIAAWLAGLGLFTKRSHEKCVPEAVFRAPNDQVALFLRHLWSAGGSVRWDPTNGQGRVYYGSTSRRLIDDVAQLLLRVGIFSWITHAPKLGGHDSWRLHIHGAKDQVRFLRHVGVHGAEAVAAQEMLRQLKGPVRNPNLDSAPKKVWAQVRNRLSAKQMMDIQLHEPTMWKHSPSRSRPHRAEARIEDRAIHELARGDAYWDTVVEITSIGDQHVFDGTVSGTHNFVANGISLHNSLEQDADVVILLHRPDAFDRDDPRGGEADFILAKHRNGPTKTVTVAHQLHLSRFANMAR

[8] = test system: BJ; test: cytotoxicity toward BJ-TERT-LT-ST fibroblasts, dose response, cell-based, RAS-independent, luminescence (AID 1935); format: functional; details: Homo sapiens;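 note: BJ fibroblasts immortalized with TERT plus LT and ST oncogenes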
[9] = cytotoxicity toward DRD oncogenic fibroblasts, dose response, cell-based, non-viral oncogenic, luminescence (AID 1934); format: functional; details: Homo sapiens
[10] = test system: BJ; test: cytotoxicity toward BJ-TERT fibroblasts, dose response, cell-based, RAS-independent, luminescence (AID 1933); format: functional; details: Homo sapiens
[11] = target: T3, Protein RecA (Mycobacterium tuberculosis, UniProt P9WHJ3); test: Fluorescence Cell-Free Homogeneous Dose Retest to Identify Inhibitors of RecA-Intein Splicing Activity. [Related pubchem assays (depositor defined):AID2097, AID2223, AID489010, AID492950]; format: functional
T3 sequence (P9WHJ3 whole entry): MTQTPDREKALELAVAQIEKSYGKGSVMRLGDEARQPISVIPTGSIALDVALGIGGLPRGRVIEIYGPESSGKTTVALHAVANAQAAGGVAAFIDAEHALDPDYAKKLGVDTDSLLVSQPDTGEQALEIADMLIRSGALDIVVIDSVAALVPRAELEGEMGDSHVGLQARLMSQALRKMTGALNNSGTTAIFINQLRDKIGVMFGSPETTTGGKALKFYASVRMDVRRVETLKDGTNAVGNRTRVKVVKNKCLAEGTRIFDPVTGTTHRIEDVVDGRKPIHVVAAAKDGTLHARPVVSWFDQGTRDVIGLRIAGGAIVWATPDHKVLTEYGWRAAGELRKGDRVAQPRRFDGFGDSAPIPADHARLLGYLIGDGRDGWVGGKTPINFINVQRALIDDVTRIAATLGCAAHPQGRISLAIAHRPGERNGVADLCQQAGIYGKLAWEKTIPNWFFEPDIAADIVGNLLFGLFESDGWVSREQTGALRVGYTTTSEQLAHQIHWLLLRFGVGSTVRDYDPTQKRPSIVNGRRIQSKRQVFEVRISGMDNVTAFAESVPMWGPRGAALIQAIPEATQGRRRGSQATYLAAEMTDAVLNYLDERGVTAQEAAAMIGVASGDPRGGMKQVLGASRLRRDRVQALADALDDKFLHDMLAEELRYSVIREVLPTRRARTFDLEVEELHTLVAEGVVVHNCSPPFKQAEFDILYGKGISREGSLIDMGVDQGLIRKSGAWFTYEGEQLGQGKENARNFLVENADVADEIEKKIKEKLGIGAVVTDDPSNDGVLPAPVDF

[12] = Luminescence Cell-Based Dose Response HTS to Identify Activators of Luciferase Translation or Activity in H4 […] Cells. [Related pubchem assays: 1829 (Project Summary), 1814 (Primary HTS)]; format: functional
[13] = target: T4, Rac GTPase-activating protein 1 (Homo sapiens, UniProt Q9H0H5); test: MgcRacGAP GTPase-activating activity inhibitors, confirmation, biochemical, ADP Hunter fluorescence, primary and confirmatory (AID 624330); format: functional
T4 sequence (Q9H0H5 whole entry): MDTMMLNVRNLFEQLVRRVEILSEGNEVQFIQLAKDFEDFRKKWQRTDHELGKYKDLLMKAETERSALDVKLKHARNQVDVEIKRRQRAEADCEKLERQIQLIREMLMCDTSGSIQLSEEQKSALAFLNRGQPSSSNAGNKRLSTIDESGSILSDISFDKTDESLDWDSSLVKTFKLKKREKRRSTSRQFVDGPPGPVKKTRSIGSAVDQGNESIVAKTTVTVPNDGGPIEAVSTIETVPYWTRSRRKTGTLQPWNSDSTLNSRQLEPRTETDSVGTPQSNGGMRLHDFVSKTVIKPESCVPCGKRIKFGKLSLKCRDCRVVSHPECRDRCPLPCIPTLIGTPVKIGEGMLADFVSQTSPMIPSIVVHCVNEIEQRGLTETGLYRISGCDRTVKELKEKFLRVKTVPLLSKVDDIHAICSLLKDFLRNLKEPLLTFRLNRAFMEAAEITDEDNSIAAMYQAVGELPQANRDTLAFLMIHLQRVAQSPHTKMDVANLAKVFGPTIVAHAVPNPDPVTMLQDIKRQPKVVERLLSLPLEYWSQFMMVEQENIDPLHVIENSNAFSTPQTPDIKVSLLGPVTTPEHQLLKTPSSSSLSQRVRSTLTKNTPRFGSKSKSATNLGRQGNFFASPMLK

[14] = test system: H4; test: Luminescence Cell-Based Dose Response HTS to Identify Activators of 5'UTR Stem-Loop Driven Prion Protein mRNA Translation in H4 Neuroglioblastoma Cells. [Related pubchem assays: 1829 (Project Summary), 1814 (Primary HTS)]; format: functional; details: Homo sapiens
[15] = target: T5, Heat shock factor protein 1 (Mus musculus, UniProt P38532); test: inhibition of MG132-induced HSE-luciferase signal, confirmation, cell-based, NIH3T3, luminescence, dose retest (AID 2382); format: functional;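 note: NIH3T3 fibroblasts with HSF1-driven luciferase reporter stressed by proteasome inhibitor MG132; luminescence from HSF1-driven luciferase expression after 8 hours of MG132 stress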
T5 sequence (P38532 whole entry): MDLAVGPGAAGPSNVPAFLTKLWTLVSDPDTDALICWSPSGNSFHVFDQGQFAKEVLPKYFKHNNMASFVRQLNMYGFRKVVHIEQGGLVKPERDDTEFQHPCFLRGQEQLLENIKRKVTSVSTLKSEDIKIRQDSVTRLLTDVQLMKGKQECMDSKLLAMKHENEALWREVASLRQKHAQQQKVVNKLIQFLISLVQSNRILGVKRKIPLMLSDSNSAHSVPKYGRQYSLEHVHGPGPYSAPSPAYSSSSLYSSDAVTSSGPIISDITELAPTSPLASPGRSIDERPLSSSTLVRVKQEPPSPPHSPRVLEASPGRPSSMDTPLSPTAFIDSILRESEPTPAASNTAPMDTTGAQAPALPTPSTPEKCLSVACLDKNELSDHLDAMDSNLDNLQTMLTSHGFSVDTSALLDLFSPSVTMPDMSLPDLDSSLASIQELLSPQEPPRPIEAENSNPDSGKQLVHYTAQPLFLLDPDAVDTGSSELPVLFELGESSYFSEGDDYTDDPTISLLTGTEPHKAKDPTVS

[16] = Luminescence Cell-Based Dose Confirmation HTS to Identify Inhibitors of Platelet Dense Granule Release. [Related pubchem assays: 1663 (Primary HTS), 1678 (Summary of Project)]; format: functional
[17] = target: Luciferin 4-monooxygenase (Photinus pyralis, UniProt P08659); test: firefly luciferase enzyme inhibitors, dose response, biochemical, luminescence (AID 1891)
Sequence of Luciferin 4-monooxygenase (P08659 whole entry): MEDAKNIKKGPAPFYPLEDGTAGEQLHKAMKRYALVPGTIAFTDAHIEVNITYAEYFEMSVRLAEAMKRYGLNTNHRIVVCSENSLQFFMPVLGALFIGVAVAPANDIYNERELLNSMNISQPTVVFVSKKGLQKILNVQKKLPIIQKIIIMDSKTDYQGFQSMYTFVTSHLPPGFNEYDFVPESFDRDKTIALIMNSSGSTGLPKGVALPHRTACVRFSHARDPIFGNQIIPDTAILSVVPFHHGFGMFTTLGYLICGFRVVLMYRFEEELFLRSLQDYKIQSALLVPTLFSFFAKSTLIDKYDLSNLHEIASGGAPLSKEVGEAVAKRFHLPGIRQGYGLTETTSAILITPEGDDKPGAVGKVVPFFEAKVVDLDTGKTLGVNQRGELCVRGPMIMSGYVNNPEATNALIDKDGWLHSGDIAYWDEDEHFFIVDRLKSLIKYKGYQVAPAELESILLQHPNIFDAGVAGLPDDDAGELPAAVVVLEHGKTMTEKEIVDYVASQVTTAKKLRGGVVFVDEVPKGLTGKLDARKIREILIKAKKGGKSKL

## Cn1nnc(NC(=O)COc2ccc(C3CCCCC3)cc2)n1
[1]
  IC50: 23.3 µM (active)

## COc1cc(OC)cc(C(=O)NCCN2CCOCC2)c1
[2]
  IC50: 48.3 µM (not active)

## COc1ccc(C2CC(C(F)(F)F)n3ncc(C(=O)Nc4cccc(O)c4)c3N2)cc1OC (stereo not given)
[3]
  EC50: 20.3 µM (active)
[4]
  EC50: 23.2 µM (active)
[5]
  EC50: 54.7 µM (active)

## CCOC(=O)Cn1c(C)c(Br)c(=O)c2cccc(C)c21
[1]
  IC50: 11.2 µM (active)

## CCOc1ccc(NC(=S)NC(=O)/C=C/c2ccc(OC)cc2)c([N+](=O)[O-])c1
[2]
  IC50: 17.2 µM (not active)

## O=C(O)COc1cccc(/C=C2/SC(=S)N(Cc3ccccc3)C2=O)c1
[6]
  EC50: > 150 µM (not active)
[7]
  AC50: 9.8 µM (active)
[8]
  EC50: > 150 µM (inconclusive)
[9]
  EC50: > 150 µM (not active)
[10]
  EC50: > 150 µM (not active)
[11]
  EC50: 10.1 µM (active)

## C/C(CC(=O)Nc1ccccn1)=N\NC(=O)c1ccccc1O
[3]
  EC50: 14 µM (active)
[4]
  EC50: 10.9 µM (active)
[5]
  EC50: 12.7 µM (active)

## COc1cc(/C=C2\C(=O)N(CCC#N)N=C2C)ccc1OCC(=O)Nc1ccccc1
[12]
  EC50: < 100 nM (active)
[13]
  IC50: 144 µM (active)
[7]
  AC50: 3.74 µM (active)
[14]
  EC50: 64.8 µM (active)
[11]
  EC50: 2.79 µM (active)

## CCOC(=O)CN1N=C(/C=C/c2ccc(C(C)C)cc2)CCC1=O
[2]
  IC50: 9.2 µM (active)

## CCOC(=O)c1c(C)nc2sc3c(=O)n(-c4ccc(OC)cc4)cnc3c2c1-c1ccc(OC)cc1
[3]
  EC50: 12.9 µM (active)
[4]
  EC50: > 120 µM (not active)
[5]
  EC50: 21.1 µM (active)

## CCC(C)C(=O)Nc1ccc([N+](=O)[O-])cc1OC (stereo not given)
[2]
  IC50: 16.1 µM (not active)

## COc1cc(O)oc1/C=N/c1ccc(C(=O)O)cc1
[15]
  EC50: > 195 µM (not active)
[6]
  EC50: 9.97 µM (active)
[8]
  EC50: > 150 µM (inconclusive)
[16]
  EC50: 2.74 µM (active)
[9]
  EC50: 10.7 µM (active)
[10]
  EC50: 13.7 µM (active)
[17]
  EC50: 10.7 µM (active)

## CCOC(=O)c1c(NC(=O)CNC2CCCCC2)sc(C)c1C
[2]
  IC50: 6.04 µM (not active)

## Cc1ccc(SC[C@H](Cc2ccccc2)N2CCN(CCc3ccccc3)CCC2=O)cc1
[2]
  IC50: 5.01 µM (not active)

## CN(C)c1ccc2nc3ccc(N(C)C)cc3[s+]c2c1 [METHYLENE BLUE ANHYDROUS]
[4]
  EC50: 11.1 µM (inconclusive)
[5]
  EC50: 5.46 µM (inconclusive)

## O=Cc1ccc(-n2nncc2-c2ccc([N+](=O)[O-])cc2)cc1
[2]
  IC50: 12.6 µM (not active)

## O=C(Nc1cnn(Cc2ccc(F)cc2)c1)c1cc2nc(-c3ccco3)cc(C(F)(F)F)n2n1
[2]
  IC50: 0.777 µM (not active)

## O=S(=O)(c1ccc2c(c1)OCCO2)N1CCc2ccccc21
[2]
  IC50: > 50 µM (not active)

## CCCN1CCC(=NNc2ccc(S(=O)(=O)N3CCOCC3)cc2[N+](=O)[O-])CC1
[3]
  EC50: 11.1 µM (inconclusive)
[4]
  EC50: 13.8 µM (active)
[5]
  EC50: 6.57 µM (active)

## O=C(CCSc1ccccn1)c1ccccc1
[1]
  IC50: 23.2 µM (active)

## CCC1CCCCN1C(=O)c1ccc(OC2CCN(C(=O)C3CC3)CC2)cc1 (stereo not given)
[2]
  IC50: > 50 µM (not active)

## CCOC(=O)c1ccc(NC(=O)Nc2ncccc2C)cc1
[2]
  IC50: 12.4 µM (not active)

## CC(C)Cn1c(N)c(C(=O)COC(=O)c2ccccc2F)c(=O)n(C)c1=O
[2]
  IC50: > 50 µM (not active)

## CCCCNc1nc(NC)nc(Cl)c1SC
[3]
  EC50: > 120 µM (not active)
[4]
  EC50: > 120 µM (not active)
[5]
  EC50: > 120 µM (not active)
